This note sets out measurements from ChEMBL document CHEMBL1201862, “PubChem BioAssay data set” (2004).

Test systems include 786-0; A498; CAKI-1; CCRF-CEM; HL-60; HOP-62; HOP-92; KM-20L2; NCI-H226; NCI-H23; NCI-H522; OVCAR-4; OVCAR-8; SF-295; SF-539; SN12C; TK-10; U-251; MCF7; MDA-N.
Test in all cases: NCI-60 cell line screen, 48 h

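Each compound was tested at five concentrations against cells in 96-well plates for 48 hours. Here, GI50 denotes the concentration required for 50% inhibition of growth.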 Activity calls are given as the source filed them. Cut-off read from the data, not from the text of the source: active = GI50 up to about 1.1 µM and inactive = higher. A value given as a limit tells only on which side of the number the result lay.

Consider `CC(C)(c1ccc(Oc2ccc(C#N)c(C#N)c2)cc1)c1ccc(Oc2ccc(C#N)c(C#N)c2)cc1`, for which the GI50 with 786-0, in the assay on A498, in the assay on CAKI-1, in the assay on CCRF-CEM, in the assay with HL-60 and with HOP-62 was > 10 µM (inactive) throughout. The GI50 with HOP-92, with KM-20L2, in the assay with NCI-H226, in the assay with NCI-H23, in the assay on NCI-H522 and in the assay on OVCAR-4 was > 10 µM (inactive) in each case. Besides, the GI50 in the assay with OVCAR-8, with SF-295, in the assay with SF-539, with SN12C, in the assay on TK-10 and in the assay with U-251 was > 10 µM (inactive) each time.
In the case of `CC(C)N(C(=O)C12CC3CC(CC(C3)C1)C2)C(C)C`, the GI50 in the assay with 786-0, with A498, with CAKI-1, in the assay with CCRF-CEM, in the assay with HL-60 and in the assay on HOP-62 was > 50 µM (inactive) each time. Further, the GI50 with HOP-92, in the assay with KM-20L2, in the assay on NCI-H226, in the assay with NCI-H23, with NCI-H522 and with OVCAR-4 was > 50 µM (inactive) each time. The GI50 in the assay with OVCAR-8, in the assay with SF-295, in the assay on SF-539, in the assay with SN12C, in the assay with TK-10 and with U-251 was > 50 µM (inactive) each time.
As for `CC/C(CC(=O)CCC(=O)Nc1ccccc1[N+](=O)[O-])=N/NC(=O)C[n+]1ccccc1`, the GI50 in the assay on 786-0, with A498, in the assay on CAKI-1, in the assay on CCRF-CEM, in the assay on HL-60 and in the assay with HOP-62 was > 100 µM (inactive) each time. Besides, the GI50 in the assay with HOP-92, in the assay with KM-20L2, with NCI-H226, in the assay with NCI-H23, in the assay on NCI-H522 and in the assay on OVCAR-4 was > 100 µM (inactive) throughout. The GI50 in the assay on OVCAR-8, with SF-295, with SF-539, in the assay on SN12C, in the assay on TK-10 and with U-251 was > 100 µM (inactive) each time.
For `CN(C)C(=S)/N=c1\ssc(=S)n1Cc1ccccc1`, the GI50 was 0.361 µM (active) in the assay with 786-0; 0.51 µM (active) in the assay with A498; 0.676 µM (active) in the assay on CAKI-1; 0.411 µM (active) in the assay with CCRF-CEM; 0.338 µM (active) with HL-60; 0.546 µM (active) with HOP-62. The GI50 was 0.342 µM (active) with HOP-92; 0.195 µM (active) in the assay on KM-20L2; 0.82 µM (active) in the assay with MCF7; 0.0348 µM (active) in the assay on MDA-N; 2.61 µM (inactive) in the assay on NCI-H226; 0.465 µM (active) with NCI-H23. Further, the GI50 was 0.063 µM (active) with NCI-H522; 3.42 µM (inactive) in the assay on OVCAR-4; 0.51 µM (active) with OVCAR-8; 0.229 µM (active) with SF-295; 0.309 µM (active) in the assay on SF-539; 0.867 µM (active) in the assay on SN12C. Besides, the GI50 in the assay on TK-10 was 1.45 µM (inactive); in the assay with U-251, 0.419 µM (active).
On to `CC(C)(C)c1cc([Si](C)(C)C)c(C#N)c([Si](C)(C)C)c1`, for which the GI50 is > 100 µM (inactive) in the assay on 786-0; > 100 µM (inactive) in the assay on A498; > 100 µM (inactive) in the assay on CAKI-1; 48.6 µM (inactive) with CCRF-CEM; 22 µM (inactive) in the assay on HL-60; > 100 µM (inactive) in the assay with HOP-62. In addition, the GI50 in the assay on HOP-92 was > 100 µM (inactive); in the assay with KM-20L2, > 100 µM (inactive); in the assay with NCI-H226, 87.9 µM (inactive); with NCI-H23, 76.9 µM (inactive); in the assay with NCI-H522, 46.6 µM (inactive); with OVCAR-4 it was > 100 µM (inactive). In addition, the GI50 in the assay with OVCAR-8 is > 100 µM (inactive); in the assay with SF-295, 29.8 µM (inactive); in the assay with SF-539, > 100 µM (inactive); with SN12C, > 100 µM (inactive); in the assay on TK-10 it was > 100 µM (inactive); in the assay on U-251 it was 36.1 µM (inactive).
Turning to `COc1cc([C@@H]2c3cc4c(cc3[C@@H](NC(=O)c3cccc(C#N)c3)C3COC(=O)[C@@H]32)OCO4)cc(OC)c1O` (stereo partly drawn), the GI50 is 0.703 µM (active) in the assay with 786-0; 1.26 µM (inactive) in the assay with A498; 0.678 µM (active) in the assay with CAKI-1; 0.0841 µM (active) with CCRF-CEM; 0.166 µM (active) in the assay with HL-60; 0.172 µM (active) in the assay on HOP-62. Further, the GI50 with HOP-92 is 0.498 µM (active); with KM-20L2, 1.63 µM (inactive); with NCI-H226, 0.0671 µM (active); with NCI-H23, 0.214 µM (active); in the assay with NCI-H522, 0.908 µM (active); with OVCAR-4, 16.7 µM (inactive). Besides, the GI50 in the assay with OVCAR-8 is 1.19 µM (inactive); with SF-295, 0.372 µM (active); in the assay on SF-539, 0.141 µM (active); in the assay with SN12C, 0.229 µM (active); in the assay with TK-10 it was 3.29 µM (inactive); in the assay on U-251, 0.155 µM (active).
`O=[N+]([O-])c1ccc(C2=Nn3c(nnc3-c3ccc(Cl)cc3)SC2)o1`: the GI50 was 10 µM (inactive) in the assay on 786-0; 16.9 µM (inactive) in the assay on A498; 9.2 µM (inactive) in the assay with CAKI-1; 2.65 µM (inactive) with CCRF-CEM; 0.989 µM (active) with HL-60; 9.12 µM (inactive) in the assay on HOP-62. The GI50 in the assay on HOP-92 was 3.29 µM (inactive); in the assay on KM-20L2 it was 5.94 µM (inactive); with MCF7, 1.88 µM (inactive); with MDA-N, 6.17 µM (inactive); in the assay on NCI-H226 it was 16.4 µM (inactive); in the assay with NCI-H23, 7.94 µM (inactive). For the same compound, the GI50 with NCI-H522 was 0.923 µM (active); with OVCAR-4, 3.11 µM (inactive); with OVCAR-8, 9.91 µM (inactive); in the assay on SF-295, 10.9 µM (inactive); in the assay with SF-539 it was 8.81 µM (inactive); in the assay with SN12C, 8.38 µM (inactive). The GI50 with TK-10 is 14.9 µM (inactive); in the assay with U-251 it was 14.1 µM (inactive).
`COc1ccccc1-n1c(C)nc2ccccc2c1=O`: the GI50 in the assay with 786-0, with A498, with CAKI-1, with CCRF-CEM, in the assay with HL-60 and in the assay on HOP-62 was > 100 µM (inactive) throughout. The GI50 in the assay on HOP-92, in the assay on KM-20L2, with NCI-H226, in the assay with NCI-H23, in the assay on NCI-H522 and in the assay on OVCAR-4 was > 100 µM (inactive) throughout. In addition, the GI50 with OVCAR-8, in the assay with SF-295, in the assay on SF-539, with SN12C, with TK-10 and with U-251 was > 100 µM (inactive) in each case.
